Experimental data: patent US12344610B2, “APOL1 inhibitors and methods of use” (Maze Therapeutics, Inc., priority 2022, dated 2025)

molecular target: T1, APOL1 G2 (Homo sapiens, UniProt O14791, DEL388-389); experiment: APOL1-mediated calcium transport (calcium influx) assay, HEK T-REx/GCaMP6f/APOL1 G2 K6.3 cells, FLIPR TETRA; type: cell-based; conditions: prevention of calcium influx; geometric mean of at least 2 assay runs; † = average of a technical replicate from a single assay run
T1 construct: expressed in transfected cells; host or cells: HEK293 T-REx clonal line stably expressing GCaMP6f (HEK T-REx/GCaMP6f/APOL1 G2 K6.3), doxycycline induced
T1 sequence (O14791 with tags, fused parts or gaps DEL388-389): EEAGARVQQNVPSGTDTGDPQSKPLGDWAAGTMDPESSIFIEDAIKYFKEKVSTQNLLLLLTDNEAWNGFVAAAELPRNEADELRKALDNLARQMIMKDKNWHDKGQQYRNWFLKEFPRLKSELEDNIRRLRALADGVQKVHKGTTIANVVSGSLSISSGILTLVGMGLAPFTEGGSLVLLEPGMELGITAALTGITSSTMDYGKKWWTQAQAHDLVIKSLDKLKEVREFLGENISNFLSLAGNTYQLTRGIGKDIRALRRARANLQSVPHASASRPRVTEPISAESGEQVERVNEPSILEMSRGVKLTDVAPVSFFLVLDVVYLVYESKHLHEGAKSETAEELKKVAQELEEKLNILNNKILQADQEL
In short: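 A HEK293 T-REx clone stably expressing GCaMP6f had APOL1 G2 induced with doxycycline (20 ng/mL solution added) for 6 h. Cells were then washed into Ca2+-free Tyrode's buffer (pH 7.4) and preincubated with compounds (duplicate 8-point) for 10 min at room temperature. Ca2+ injection to 5 mM final produced FLIPR GCaMP fluorescence, giving AC50 for influx inhibition (geometric mean, ≥2 runs).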

Structure (SMILES) | AC50 [nM]
CS(=O)(=O)C1(c2ncc(OCCN3CCC4(CC3)C(=O)Nc3ccc(Cl)cc34)cn2)COC1 [Compound 276, 5-chloro-1′-(2-{[2-(3-methanesulfonyloxetan-3-yl)pyrimidin-5-yl]oxy}ethyl)-1,2-dihydrospiro[indole-3,4′-piperidin]-2-one] | 1750
CS(=O)(=O)c1ccc(OCCN2CCC3(CC2)C(=O)Nc2ccc(Cl)cc23)cc1C(F)CF (single isomer, unassigned) [Compound 218, 5-chloro-1′-(2-{3-[(1S or 1R)-1,2-difluoroethyl]-4-methanesulfonylphenoxy}ethyl)-1,2-dihydrospiro[indole-3,4′-piperidin]-2-one] | 690
CN(C)C(=O)c1ccc(OCCN2CCC3(CC2)C(=O)Nc2ccc(Cl)cc23)cc1F [Compound 230, 4-(2-{5-chloro-2-oxo-1,2-dihydrospiro[indole-3,4′-piperidin]-1′-yl}ethoxy)-2-fluoro-N,N-dimethylbenzamide] | 891
